Four compounds from patent publication US11369607B2, “Compositions, systems, and methods for generating inner ear hair cells for treatment of hearing loss” (Massachusetts Institute of Technology, priority 2014, dated 2022) can be followed below.

“Also recorded” adds a separate entry of the source. Some results are limits rather than exact numbers.

Data set [1] concerns Lgr5+ supporting cells isolated from the cochlea. The data set is described as follows: Expansion of Lgr5-GFP inner ear progenitor cells in Matrigel based 3D culture. Format: cell-based, mouse. The conditions noted are these: for GFP+ cell number / GFP+ percentage: named factor removed from EFICVP6, 10 days; for Lgr5-GFP expression, effect of addition / cell proliferation, effect of addition: neonatal Lgr5 inner ear progenitor cells. How it is done:
Cell culture: Heterozygous Lgr5-EGFP-IRES-CreERT2 mice were obtained from Jackson Labs, and neonatal P2-P5 mice were used for cell isolation. Organ of Corti was isolated from Lgr5-GFP mice and further dissociated into single cells using trypsin. Cells were then cultured as previously described (Yin et al, 2014). Briefly, cells were entrapped in Matrigel and plated at the center of wells in a 24-well plate. Following polymerization of Matrigel, 500 μl of culture media (Advanced DMEM/F12 with N2 and B27) was added, containing growth factors including EGF (50 ng/ml) (epidermal growth factor), bFGF (20 ng/ml) (fibroblast growth factor), and IGF1 (50 ng/ml) (insulin-like growth factor 1), and small molecules including CHIR99021 (5 μM), valproic acid (1 mM), 2-phospho-L-ascorbic acid (280 μM), and 616452 (2 μM). Y-27632 (10 μM) was added for the first 2 days. In some experiments, bFGF was used at 50 ng/ml.
For single cell isolation, the organs of Corti were then treated with Cell Recovery Solution (Corning) for 1 h to separate cochlear epithelium from the underlying mesenchyme. Epithelia were then collected and treated with Trypsin (Life Technologies) for 15-20 minutes at 37° C. Single cells obtained by mechanical trituration were filtered by cell strainer (40 μm) and washed with cell culture media. For FACS sorting of Lgr5-high and Lgr5-Low cells, FACS ARIA (BD) was used and Lgr5-GFP was used as indicator of Lgr5 level. Sorted single cells were cultured in Matrigel in inner ear cell culture media with supplement growth factors and small molecules. Y-27632 was added in the first 2 days.
FACS analysis: Cell culture media was removed and Trypsin was added. After incubation at 37° C. for 10-20 min, colonies were dissociated into single cells. Live-cell number were counted using a hemocytometer and trypan blue staining. The cells were then stained with propidium iodide (PI) and analyzed with flow cytometry. The number of GFP-positive cells was calculated by multiplying the total number of cells by the percentage of GFP-positive cells.

Data set [2] has as its system Atoh1-GFP inner ear epithelial cells. Nature of the data set: Spontaneous hair cell differentiation of cultured Atoh1-nGFP inner ear epithelial cells. Type of data set: cell-based, mouse.
Data set [3] relates to expanded Lgr5-positive cells. The data set is described as follows: Differentiation of expanded Lgr5-positive cells to hair cells. Format: cell-based, mouse. The conditions noted are these: in differentiation media. As to the method: Differentiation protocol: For differentiation of expanded Lgr5-positive cells, following 10 days of culture in the cell expansion condition (EFICVP6), the cell colonies were transferred to fresh Matrigel and further cultured in differentiation media. Differentiation media contains Notch pathway inhibitor (e.g. DAPT, D, 5 μM, or LY411575, LY, 5 μM), with or without Gsk3β inhibitor (e.g. CHIR99021). Media were changed every other day. Following another 6-10 days of incubation with differentiation media, the colonies were harvested for qPCR analysis or fixed with 4% PFA and immunostained with hair cell markers Myo7a and Prestin.
RNA extraction and quantitative real-time PCR (qPCR): RNA was isolated from cultured cells (RNeasy Mini Kit; Qiagen) according to the manufacturer's protocol. Quantitative real-time PCR was performed with QuantiTect Probe PCR kit (Qiagen) using commercially available primers and TaqMan probes (Myo7a and Hprt Life Technologies).
Immunocytochemistry staining: Colonies were fixed at room temperature in 4% paraformaldehyde/PBS for 15-20 min and then washed twice with PBS containing 0.1% BSA. Cells were then permeabilized with 0.25% Triton X-100 in PBS in 4° C. for 30 minutes. Following 2 washes with PBS containing 0.1% BSA, the cells were incubated with blocking solution (Power Block, Biogenex) for 1 h. Diluted primary antibodies (in Power Block solution) was applied for 4 h at room temperature or overnight at 4° C. Primary antibodies used were Myosin VIIA (1:500, Rabbit polyclonal from Proteus Biosciences) and Prestin (1:400, Goat polyclonal from Santa Cruz). After 3 washes for 5 minutes each, secondary antibodies (Alexafluor 594 and 647-conjugated; Invitrogen) were added at 1:500 dilution and incubated at room temperature for 30 minutes. Nuclei were visualized with 4,6-diamidino-2-phenylindole (DAPI, Vector Laboratories). Staining was visualized with inverted fluorescence microscope (EVOS; Advanced Microscopy Group).

Data set [4] in a line: In vitro drug release from poloxamer-407 hydrogel (dialysis bag method). Format: physicochemical. To be noted: for initial burst release / cumulative release: pH 7.4, 37° C.; for cumulative release: in 48 h. How it is done: To understand the release kinetics of encapsulated drugs from poloxamer-407 hydrogels, in vitro release studies were performed using dialysis bag method at pH 7.4 and 37° C. temperature conditions. Briefly, sealed dialysis bag (3.5-5 kDa cutoff) containing 30 μL gel suspended in 1 ml PBS was placed in 10 mL of the release medium (PBS). The release medium was stirred at 100 rpm to prevent the formation of a stagnant layer at the membrane and outer solution interface. 1 mL aliquots were taken from the medium at predetermined intervals for the analysis of drugs using HPLC, and replaced with an equal volume of fresh medium.

Data set [5] relates to Lgr5 inner ear cells from adult mice. Nature of the data set: Expansion of Lgr5-GFP inner ear cells from adult mice. Type of data set: cell-based. The conditions noted are these: adult mouse. How it is done:
FIGS. 13A-C depict In vitro culture of Lgr5-GFP inner ear progenitor cells from adult mouse. FIG. 13A: Isolated cochlear from 9-week old mice was cultured in the presence of EFICVP6 for 9 days. Showing out-growth of Lgr5-GFP cells. FIG. 13B: The same culture at day 13. Showing expansion of Lgr5-GFP cells. FIG. 13C: Passage 2 of the same culture at day 5 after passage (Day 19). All scale bars: 100 μm. Specifically, cochlear was isolated from 9-week old adult mice, directly mixed with Matrigel and plated at the center of well of a 24-well plate. Cell culture medium in the presence of EGF, bFGF, IGF-1, CHIR99021, VPA, L-Ascorbic acid 2-phosphate (pVc) and a TGF-β RI Kinase Inhibitor II (616452) was added following gelation of Matrigel. The tissue was cultured for 2 weeks until Lgr5-GFP cells expanded and form out-growth. After 2 weeks (Day 14) the tissue was then dissociated using trypsin, re-plated and further cultured.
For adult tissue, the stria vascularis was removed but the epithelium was not removed from the underlying mesenchyme due to the limited amount of intact cochlea that could be extracted. For adult cells, additional small molecule TTNPB (2 μM, Tocris) was added and the complete media contain EGF, bFGF, IGF-1, CHIR99021, VPA, pVc, 616452 and TTNPB.

Data set [6] can be described thus: Thermal gelation of poloxamer-407 formulations (visual tube inversion method). Type of data set: physicochemical. As to the method: Poloxamer-407 hydrogels were prepared using the “cold-method”. Briefly, a weighed amount of poloxamer-407 was added to 40 ml cold ultra pure water or cold PBS (pH 7.4), and stirred overnight at 4° C. on a magnetic stir plate to effect complete solubilization. Multiple concentrations of poloxamer-407 solution ranging from 18% (w/w) to 25% (w/w) were prepared. Hydrophilic drugs, including valproic acid (VPA) and phosphorylated ascorbic acid (PAC) were added to the 5 ml poloxamer-407 solution and dissolved at 4° C. on a magnetic stir plate. Weight ratio of poloxamer-407 to the drug was varied to understand the effects of drugs on the gelation properties of poloxamer-407, and to determine the optimal formulation that gels at 37° C. with maximum possible loading of the hydrophilic drugs. The gelation temperatures of the formulations were determined by the “visual tube inversion method”. Briefly, glass vials containing poloxamer 407 solutions, with or without the hydrophilic drugs were placed in a water bath.
To encapsulate hydrophobic drugs, including CHIR 99021 (CHIR), Repsox and TTNPB, appropriate volumes from their stock solutions in DMSO were added into the poloxamer-407 solutions containing the hydrophilic drugs, and mixed by pipetting at 4° C. […] Gelation temperature of the formulation was determined by the “visual tube inversion method”, as described before.

Where [7] appears, read: factor removed from the culture medium.
The mark [8] stands for this setting: named factor removed, versus EFICVP6.

Consider `Cc1c[nH]c(-c2cnc(NCCNc3ccc(C#N)cn3)nc2-c2ccc(Cl)cc2Cl)n1` [CHIR, 6-[[2-[[4-(2,4-dichlorophenyl)-5-(5-methyl-1H-imidazol-2-yl)-2-pyrimidinyl]amino]ethyl]amino]-3-pyridinecarbonitrile], for which, in data set [1] (setting [7]), the “importance of the factor for Lgr5-GFP expression” value was “critical for cell proliferation and GFP expression; also recorded: greatly impacted GFP expression; also recorded: greatest effect on Lgr5 expression; also recorded: important to promote cell proliferation and GFP expression”; the “importance of the factor for cell proliferation” value was “critical for cell proliferation and GFP expression; also recorded: greatly impacted cell proliferation; also recorded: greatest effect on proliferation; also recorded: important to promote cell proliferation and GFP expression”. In data set [1], the “GFP+ cell number” value is on record as about 65 cells and the “GFP+ percentage” value was found to be 1.3%. Besides, in data set [1] (setting [8]), the “decrease of GFP+ cell number” value is recorded as about 4000 fold, the “decrease of GFP+ percentage” value is on record as about 50 fold and the “decrease of total cell number” value is about 100 fold. Also, in data set [2], the “differentiation to Atoh-1+ cells” value was “can promote differentiation to Atoh-1+ cells”. Besides, the “effect on differentiation of hair cells” value in data set [3] is given as “increases the differentiation efficiency of a Notch inhibitor”. Besides, the initial burst release in data set [4] (in 2 h) is listed as 10%. Also, the cumulative release in data set [4] turned out to be 33%.

Regarding `C/C(=C\c1ccc(C(=O)O)cc1)c1ccc2c(c1)C(C)(C)CCC2(C)C` [TTNPB], in data set [1], the “Lgr5-GFP expression, effect of addition” value is recorded as “didn't increase GFP expression” and the “cell proliferation, effect of addition” value is on record as “increased cell proliferation; also recorded: slightly increased cell proliferation”. Moreover, in data set [5], the “GFP+ colony formation” value is “formation of GFP^+ colonies” and the “proliferation of adult Lgr5 cells” value is listed as “increase cell proliferation; also recorded: significantly promoted the proliferation of cultured cells; also recorded: promote the proliferation of adult Lgr5 inner ear progenitor cells”.

As for `CCCC(CCC)C(=O)O` [VPA, 2-propylpentanoic acid], the “importance of the factor for Lgr5-GFP expression” value in data set [1] (setting [7]) is recorded as “important for GFP expression; also recorded: greater impact on GFP maintenance; also recorded: greatly reduced Lgr5 expression; also recorded: important to promote GFP maintenance”. For the same compound, the “GFP+ percentage” value in data set [1] is listed as 28%. For the same compound, in data set [1] (setting [8]), the “decrease of GFP+ cell number” value worked out at 2 fold and the “decrease of GFP+ percentage” value was 2 fold. Further, the “spontaneous differentiation of hair cells” value in data set [2] (Atoh1-nGFP mouse line, 7 days) is recorded as “inhibited the differentiation of inner ear progenitor cells towards Atoh1 positive hair cells; also recorded: suppressed spontaneous differentiation of hair cells; also recorded: functions through suppressing differentiation”. Moreover, the “effect on differentiation of hair cells” value in data set [3] is on record as “inhibit the differentiation of hair cells”. For the same compound, the “concentration that inhibited gelation of poloxamer-407 solution” value in data set [6] is “greater than 88 mg/ml”. Further, in data set [4], the release kinetics entry is listed as “significantly faster as compared to that of CHIR” and the cumulative release worked out at 98%. The initial burst release in data set [4] (in 0.5 h) came out at 17%.

For `O=C1O[C@H]([C@@H](O)CO)C(O)=C1OP(=O)(O)O` [pVc, 2-phospho-L-ascorbic acid], the “importance of the factor for Lgr5-GFP expression” value in data set [1] (setting [7]) is on record as “greater impact on GFP maintenance; also recorded: greatly reduced Lgr5 expression; also recorded: important to promote GFP maintenance”. Besides, in data set [1], the “GFP+ cell number” value is on record as 1.1×10^5 cells; the “GFP+ percentage” value worked out at 25%; the “Lgr5-GFP expression, effect of addition” value is recorded as “promoted GFP expression from Lgr5-GFP inner ear progenitor cells; also recorded: promotes GFP expression”; the “cell proliferation, effect of addition” value is reported as “increases cell proliferation of Lgr5 inner ear progenitor cells”. In data set [1] (setting [8]), the “decrease of GFP+ cell number” value was 2 fold and the “decrease of GFP+ percentage” value came to 2 fold. The “effect on differentiation of hair cells” value in data set [3] is on record as “inhibit the differentiation of hair cells”. Further, the “concentration that inhibited gelation of poloxamer-407 solution” value in data set [6] is over 14000 µg/mL.
